Measured values: ChEMBL document CHEMBL3886153, “HIV protease inhibitors” (2015)

These compounds were tested against Gag-Pol polyprotein (Human immunodeficiency virus type 1 group M subtype B (isolate HXB2)(HIV-1), UniProt P04585) (assay: Inhibition Assay: The inhibition of WT HIV-1 protease was studied using the reaction of the protease (expressed in Eschericia coli) with a peptide substrate [Val-Ser-Gln-Asn-(betanaphthyl)Ala-Pro-Ile-Val (SEQ ID NO:1)]. Compounds were tested using Procedure A. In Procedure A, the test compound was first preincubated with the enzyme in assay buffer (50 mM sodium acetate, pH 5.5, 100 mM NaCl, and 0.1% BSA) for 30 minutes at room temperature. Substrate was then added to 400 micromolar in a total volume of 80 microliters containing 10 picomolar HIV-1 protease and the reaction was incubated for 1 hour at 30° C. The reaction was quenched with the addition of 120 microliters of 10% phosphoric acid. The product formation was determined after separation of product and substrate on a Zorbax Eclipse XDB-C18 column (Agilent Technologies, Santa Clara, Calif.) connected to an Agilent 1100 high performance liquid chromatography system with fluorescence detection (excitation 270 nanometer and emission 330 nanometer).).

Compound | IC50
COC(=O)N[C@H](C(=O)N[C@H](c1ccc([C@@H](CO)N(C(C)C)S(=O)(=O)c2cc(N)cs2)s1)C(F)(F)F)C(c1ccccc1)c1ccccc1 | 21.7 nM
COC(=O)N[C@H](C(=O)N[C@H](c1ccc([C@@H](CO)N(CCC(C)(C)C)S(=O)(=O)c2ccc(=O)[nH]c2)s1)C(F)(F)F)C(c1ccccc1)c1ccccc1 | 9.42 nM
COC(=O)N[C@H](C(=O)N[C@H](c1ccc(C(CO)N(CCC(C)(C)C)S(=O)(=O)c2ccc(OC)nc2)s1)C(F)(F)F)C(c1ccccc1)c1ccccc1 (stereo partly specified) | 27.5 nM
COC(=O)N[C@H](C(=O)N[C@H](c1ccc([C@@H](CO)N(C(C)C)S(=O)(=O)c2ccc(N)cc2)s1)C(F)(F)F)[C@@H](c1ccccc1)c1c[nH]c2ncccc12 | 3.96 nM
COC(=O)N[C@H](C(=O)NCc1ccc([C@@H](CO)N(CC2CC(F)(F)C2)S(=O)(=O)c2ccc(C(C)O)cc2)s1)C(c1ccccc1)c1ccccc1 (stereo partly specified) | 8.97 nM
COC(=O)N[C@H](C(=O)N[C@H](c1ccc([C@@H](CO)N(CCC(C)(C)C)S(=O)(=O)c2cn3ncnc3cn2)s1)C(F)(F)F)C(c1ccccc1)c1ccccc1 | 3.59 nM
COC(=O)N[C@H](C(=O)N[C@H](c1ccc([C@@H](CO)N(C(C)C)S(=O)(=O)c2ccc(N)c(Cl)c2)s1)C(F)(F)F)C(c1ccccc1)c1ccccc1 | 92.5 nM
COC(=O)N[C@H](C(=O)NCc1ccc([C@@H](CO)N(CC2CC(F)(F)C2)S(=O)(=O)c2ccc(C(C)=O)cc2)s1)C(c1ccccc1)c1ccccc1 | 11.9 nM
COC(=O)N[C@H](C(=O)N[C@H](c1ccc([C@@H](CO)N(C(C)C)S(=O)(=O)c2ccc(Cl)s2)s1)C(F)(F)F)C(c1ccccc1)c1ccccc1 | 184 nM
COC(=O)N[C@H](C(=O)NCc1ccc([C@@H](CO)N(CC2CC(F)(F)C2)S(=O)(=O)c2ccc(C(O)C(F)(F)F)cc2)s1)C(c1ccccc1)c1ccccc1 (stereo partly specified) | 26.9 nM
COC(=O)N[C@H](C(=O)N[C@H](c1ccc([C@@H](CO)N(CCC(C)(C)C)S(=O)(=O)C2=CC3NC=C(Cl)C3C=C2)s1)C(F)(F)F)C(c1ccccc1)c1ccccc1 (stereo partly specified) | 43.8 nM
